Measured values from ChEMBL document CHEMBL4011590, “Structure-activity relationship studies on 3,5-dinitrophenyl tetrazoles as antitubercular agents” (Eur J Med Chem, 2017).

What was measured:
Format in all cases: functional
Klebsiella pneumoniae [1] = assay: Antibacterial activity against Klebsiella pneumoniae HK11750/08 after 24 hrs by broth microdilution method
Pseudomonas aeruginosa [2] = assay: Antibacterial activity against Pseudomonas aeruginosa ATCC 9027 after 24 hrs by broth microdilution method
Klebsiella pneumoniae [3] = assay: Antibacterial activity against extended spectrum beta-lactamase producing Klebsiella pneumoniae HK14368/08 after 24 hrs by broth microdilution method
Escherichia coli [4] = assay: Antibacterial activity against Escherichia coli ATCC 8739 after 24 hrs by broth microdilution method
[5] = tested on: Mycobacterium tuberculosis; assay: Antimycobacterial activity against Mycobacterium tuberculosis H37Rv CNCTC My 331/88 after 21 days by micromethod; details: H37Rv CNCTC My 331/88, 504 h
Nakaseomyces glabratus [6] = assay: Antifungal activity against Candida glabrata 20/I after 24 hrs by broth microdilution method
Aspergillus fumigatus [7] = assay: Antifungal activity against Aspergillus fumigatus 231 after 24 hrs by broth microdilution method; details: Aspergillus fumigatus, 231, 24 h
Nakaseomyces glabratus [8] = assay: Antifungal activity against Candida glabrata 20/I after 48 hrs by broth microdilution method
[9] = tested on: Trichophyton mentagrophytes; assay: Antifungal activity against Trichophyton mentagrophytes 445 after 120 hrs by broth microdilution method; details: Trichophyton mentagrophytes, 445, 120 h
Staphylococcus aureus [10] = assay: Antibacterial activity against Staphylococcus aureus ATCC 6538 after 24 hrs by broth microdilution method; details: ATCC 6538, 24 h
Staphylococcus aureus [11] = assay: Antibacterial activity against methicillin-resistant Staphylococcus aureus HK5996/08 after 24 hrs by broth microdilution method; details: HK5996/08, 24 h
Candida tropicalis [12] = assay: Antifungal activity against Candida tropicalis 156 after 24 hrs by broth microdilution method; details: Candida tropicalis, 156, 24 h
Mycobacterium kansasii [13] = assay: Antimycobacterial activity against Mycobacterium kansasii CNCTC My 235/80 after 7 days by micromethod; details: CNCTC My 235/80, 168 h
Candida albicans [14] = assay: Antifungal activity against Candida albicans ATCC 44859 after 24 hrs by broth microdilution method; details: ATCC 44859, 24 h
Enterococcus sp. [15] = assay: Antibacterial activity against Enterococcus sp. HK14365/08 after 48 hrs by broth microdilution method; details: HK14365/08, 48 h
Candida tropicalis [16] = assay: Antifungal activity against Candida tropicalis 156 after 48 hrs by broth microdilution method; details: Candida tropicalis, 156, 48 h
Enterococcus sp. [17] = assay: Antibacterial activity against Enterococcus sp. HK14365/08 after 24 hrs by broth microdilution method; details: HK14365/08, 24 h
Pichia kudriavzevii [18] = assay: Antifungal activity against Candida krusei E28 after 48 hrs by broth microdilution method; details: E28, 48 h
Lichtheimia corymbifera [19] = assay: Antifungal activity against Absidia corymbifera 272 after 24 hrs by broth microdilution method; details: Lichtheimia corymbifera, 272, 24 h
Pseudomonas aeruginosa [20] = assay: Antibacterial activity against Pseudomonas aeruginosa ATCC 9027 after 48 hrs by broth microdilution method; details: ATCC 9027, 48 h
Mycobacterium avium [21] = assay: Antimycobacterial activity against Mycobacterium avium CNCTC My 330/80 after 21 days by micromethod; details: CNCTC My 330/80, 504 h
[22] = tested on: Staphylococcus epidermidis; assay: Antibacterial activity against Staphylococcus epidermidis HK6966/08 after 48 hrs by broth microdilution method; details: HK6966/08, 48 h
Mycobacterium kansasii [23] = assay: Antimycobacterial activity against Mycobacterium kansasii isolate 6509/96 after 7 days by micromethod; details: isolate 6509/96, 168 h
[24] = tested on: Mycobacterium tuberculosis; assay: Antimycobacterial activity against Mycobacterium tuberculosis H37Rv CNCTC My 331/88 after 14 days by micromethod; details: H37Rv CNCTC My 331/88, 336 h
Staphylococcus aureus [25] = assay: Antibacterial activity against methicillin-resistant Staphylococcus aureus HK5996/08 after 48 hrs by broth microdilution method; details: HK5996/08, 48 h
Mycobacterium kansasii [26] = assay: Antimycobacterial activity against Mycobacterium kansasii CNCTC My 235/80 after 21 days by micromethod; details: CNCTC My 235/80, 504 h
Candida albicans [27] = assay: Antifungal activity against Candida albicans ATCC 44859 after 48 hrs by broth microdilution method; details: ATCC 44859, 48 h
Trichosporon asahii [28] = assay: Antifungal activity against Trichosporon asahii 1188 after 24 hrs by broth microdilution method; details: Trichosporon asahii, 1188, 24 h
Aspergillus fumigatus [29] = assay: Antifungal activity against Aspergillus fumigatus 231 after 48 hrs by broth microdilution method; details: Aspergillus fumigatus, 231, 48 h
Mycobacterium kansasii [30] = assay: Antimycobacterial activity against Mycobacterium kansasii CNCTC My 235/80 after 14 days by micromethod; details: CNCTC My 235/80, 336 h
Mycobacterium kansasii [31] = assay: Antimycobacterial activity against Mycobacterium kansasii isolate 6509/96 after 21 days by micromethod; details: isolate 6509/96, 504 h
Klebsiella pneumoniae [32] = assay: Antibacterial activity against extended spectrum beta-lactamase producing Klebsiella pneumoniae HK14368/08 after 48 hrs by broth microdilution method; details: HK14368/08, 48 h
[33] = tested on: Staphylococcus epidermidis; assay: Antibacterial activity against Staphylococcus epidermidis HK6966/08 after 24 hrs by broth microdilution method; details: HK6966/08, 24 h
Trichosporon asahii [34] = assay: Antifungal activity against Trichosporon asahii 1188 after 48 hrs by broth microdilution method; details: Trichosporon asahii, 1188, 48 h
Escherichia coli [35] = assay: Antibacterial activity against Escherichia coli ATCC 8739 after 48 hrs by broth microdilution method; details: ATCC 8739, 48 h
Lichtheimia corymbifera [36] = assay: Antifungal activity against Absidia corymbifera 272 after 48 hrs by broth microdilution method; details: Lichtheimia corymbifera, 272, 48 h
Mycobacterium kansasii [37] = assay: Antimycobacterial activity against Mycobacterium kansasii isolate 6509/96 after 14 days by micromethod; details: isolate 6509/96, 336 h
[38] = tested on: Trichophyton mentagrophytes; assay: Antifungal activity against Trichophyton mentagrophytes 445 after 72 hrs by broth microdilution method; details: Trichophyton mentagrophytes, 445, 72 h
Mycobacterium avium [39] = assay: Antimycobacterial activity against Mycobacterium avium CNCTC My 330/80 after 14 days by micromethod; details: CNCTC My 330/80, 336 h
Pichia kudriavzevii [40] = assay: Antifungal activity against Candida krusei E28 after 24 hrs by broth microdilution method; details: E28, 24 h
Staphylococcus aureus [41] = assay: Antibacterial activity against Staphylococcus aureus ATCC 6538 after 48 hrs by broth microdilution method; details: ATCC 6538, 48 h
Klebsiella pneumoniae [42] = assay: Antibacterial activity against Klebsiella pneumoniae HK11750/08 after 48 hrs by broth microdilution method; details: HK11750/08, 48 h

GENTAMICIN
1 µM: MIC (Pseudomonas aeruginosa [2])
0.26 µM: MIC (Klebsiella pneumoniae [1]) | MIC (Klebsiella pneumoniae [3]) | MIC (Escherichia coli [4])

Cn1nnnc1SCn1nnc(-c2cc([N+](=O)[O-])cc([N+](=O)[O-])c2)n1
16 µM: MIC99 (Mycobacterium kansasii [13]) | MIC99 (Mycobacterium kansasii [23])
32 µM: MIC99 (Mycobacterium avium [21]) | MIC99 (Mycobacterium kansasii [26]) | MIC99 (Mycobacterium kansasii [30]) | MIC99 (Mycobacterium kansasii [31]) | MIC99 (Mycobacterium kansasii [37]) | MIC99 (Mycobacterium avium [39])
> 500 µM: MIC (Nakaseomyces glabratus [6]) | MIC (Aspergillus fumigatus [7]) | MIC (Nakaseomyces glabratus [8]) | MIC [9] | MIC (Staphylococcus aureus [10]) | MIC (Staphylococcus aureus [11]) | MIC (Candida tropicalis [12]) | MIC (Candida albicans [14]) | MIC (Klebsiella pneumoniae [1]; HK11750/08, 24 h) | MIC (Candida tropicalis [16]) | MIC (Pichia kudriavzevii [18]) | MIC (Lichtheimia corymbifera [19]) | MIC (Pseudomonas aeruginosa [20]) | MIC (Pseudomonas aeruginosa [2]; ATCC 9027, 24 h) | MIC (Staphylococcus aureus [25]) | MIC (Klebsiella pneumoniae [3]; HK14368/08, 24 h) | MIC (Candida albicans [27]) | MIC (Trichosporon asahii [28]) | MIC (Aspergillus fumigatus [29]) | MIC (Klebsiella pneumoniae [32]) | MIC (Trichosporon asahii [34]) | MIC (Escherichia coli [35]) | MIC (Escherichia coli [4]; ATCC 8739, 24 h) | MIC (Lichtheimia corymbifera [36]) | MIC [38] | MIC (Pichia kudriavzevii [40]) | MIC (Staphylococcus aureus [41]) | MIC (Klebsiella pneumoniae [42])
125 µM: MIC [22] | MIC [33]
500 µM: MIC (Enterococcus sp. [15]) | MIC (Enterococcus sp. [17])
2 µM: MIC99 [5] | MIC99 [24]
